Where two headings read alike, the source gives them in different places. Bridges are numbered along the chain shown (N, C = ends). [ ]: non-standard residue; d: D form. Trp(5-F) = N[C@@H](Cc1c[nH]c2ccc(F)cc12)C(=O)O; Trp(6-F) = N[C@@H](Cc1c[nH]c2cc(F)ccc12)C(=O)O

Experiment [1] deals with activation of the complement system by immunocomplexes (C3b/iC3b deposition). As to conditions: cited from earlier work; for Activity over compstatin: Table 1A, previously described analogs (WO2004/026328).
The test system is the same in experiment [2]. In words: Complement inhibition assay (ELISA): inhibition of C3 fixation to ovalbumin-anti-ovalbumin complexes in normal human plasma. The class given is biochemical. As to conditions: for Activity over compstatin: Table 1B, exemplary analogs described herein; for Relative activity: Table 2, relative to the activity of compstatin (SEQ ID NO: 1); for complement inhibitory activity (in words): at the concentrations tested; for amount of conjugate required to achieve the same inhibition as Ac-V4(1-methyl-W)/H9A: relative to Ac-V4(1-methyl-W)/H9A (SEQ ID NO:23). On the procedure:
Complement activation inhibition was assessed by measuring the inhibition of C3 fixation to ovalbumin-anti-ovalbumin complexes in normal human plasma. Microtiter wells were coated with 50 μl of ovalbumin (10 mg/ml) for 2 hr at 25° C. (overnight at 4° C.). The wells were saturated with 200 μl of 10 mg/ml BSA for 1 hr at 25° C. and then a rabbit anti-ovalbumin antibody was added to form an immunocomplex by which complement can be activated. Thirty microliters of peptides at various concentrations were added directly to each well followed by 30 μl of a 1:80 dilution of human plasma. After 30 min incubation, bound C3b/iC3b was detected using a goat anti-human C3 HRP-conjugated antibody. Color was developed by adding ABTS peroxidase substrate and optical density measured at 405 nm.
The % inhibition was plotted against the peptide concentration, and the resulting data set was fit to the logistic dose-response function using Origin 7.0 software. […] IC50 values were obtained from the fitted parameters that achieved the lowest chi-square value.
(ELISA stands for enzyme-linked immunosorbent assay.)

Experiment [3] concerns alternative pathway-mediated erythrocyte lysis. As to conditions: cited from earlier work.
Experiment [4] deals with C3 (Homo sapiens, UniProt P01024). Put plainly: Isothermal titration calorimetry of the interaction of C3 with compstatin analogs. The class given is binding. The protocol:
Isothermal titration calorimetry experiments were performed using the Microcal VP-ITC calorimeter (Microcal Inc, Northampton, Mass.). Protein concentrations of 3.5-5 μM and peptide concentrations of 80-200 μM were used for these experiments. All titrations were performed in PBS (10 mM phosphate buffer with 150 mM NaCl, pH 7.4). In each experiment, the target protein, C3, was loaded into the cell, and peptide was loaded into the syringe. All experiments were performed at 25° C. and for each experiment, 2-μl peptide injections were made into the cell containing the protein. In each experiment, the raw isotherms were corrected for the heats of dilution by subtracting the isotherms representing peptide injections into the buffer. The resulting isotherms were fit to various models within the Origin 7.0 software, and the model that achieved the lowest chi square value was deemed to be appropriate for the respective dataset. Binding affinity and entropy values were plotted against log P values.
On the technique in general: ITC needs no label: the signal is the heat of the interaction.

Setting [5] is: relative to Ac-V4W/H9A (SEQ ID NO:5).

Chain of C3 (P01024 23-1663): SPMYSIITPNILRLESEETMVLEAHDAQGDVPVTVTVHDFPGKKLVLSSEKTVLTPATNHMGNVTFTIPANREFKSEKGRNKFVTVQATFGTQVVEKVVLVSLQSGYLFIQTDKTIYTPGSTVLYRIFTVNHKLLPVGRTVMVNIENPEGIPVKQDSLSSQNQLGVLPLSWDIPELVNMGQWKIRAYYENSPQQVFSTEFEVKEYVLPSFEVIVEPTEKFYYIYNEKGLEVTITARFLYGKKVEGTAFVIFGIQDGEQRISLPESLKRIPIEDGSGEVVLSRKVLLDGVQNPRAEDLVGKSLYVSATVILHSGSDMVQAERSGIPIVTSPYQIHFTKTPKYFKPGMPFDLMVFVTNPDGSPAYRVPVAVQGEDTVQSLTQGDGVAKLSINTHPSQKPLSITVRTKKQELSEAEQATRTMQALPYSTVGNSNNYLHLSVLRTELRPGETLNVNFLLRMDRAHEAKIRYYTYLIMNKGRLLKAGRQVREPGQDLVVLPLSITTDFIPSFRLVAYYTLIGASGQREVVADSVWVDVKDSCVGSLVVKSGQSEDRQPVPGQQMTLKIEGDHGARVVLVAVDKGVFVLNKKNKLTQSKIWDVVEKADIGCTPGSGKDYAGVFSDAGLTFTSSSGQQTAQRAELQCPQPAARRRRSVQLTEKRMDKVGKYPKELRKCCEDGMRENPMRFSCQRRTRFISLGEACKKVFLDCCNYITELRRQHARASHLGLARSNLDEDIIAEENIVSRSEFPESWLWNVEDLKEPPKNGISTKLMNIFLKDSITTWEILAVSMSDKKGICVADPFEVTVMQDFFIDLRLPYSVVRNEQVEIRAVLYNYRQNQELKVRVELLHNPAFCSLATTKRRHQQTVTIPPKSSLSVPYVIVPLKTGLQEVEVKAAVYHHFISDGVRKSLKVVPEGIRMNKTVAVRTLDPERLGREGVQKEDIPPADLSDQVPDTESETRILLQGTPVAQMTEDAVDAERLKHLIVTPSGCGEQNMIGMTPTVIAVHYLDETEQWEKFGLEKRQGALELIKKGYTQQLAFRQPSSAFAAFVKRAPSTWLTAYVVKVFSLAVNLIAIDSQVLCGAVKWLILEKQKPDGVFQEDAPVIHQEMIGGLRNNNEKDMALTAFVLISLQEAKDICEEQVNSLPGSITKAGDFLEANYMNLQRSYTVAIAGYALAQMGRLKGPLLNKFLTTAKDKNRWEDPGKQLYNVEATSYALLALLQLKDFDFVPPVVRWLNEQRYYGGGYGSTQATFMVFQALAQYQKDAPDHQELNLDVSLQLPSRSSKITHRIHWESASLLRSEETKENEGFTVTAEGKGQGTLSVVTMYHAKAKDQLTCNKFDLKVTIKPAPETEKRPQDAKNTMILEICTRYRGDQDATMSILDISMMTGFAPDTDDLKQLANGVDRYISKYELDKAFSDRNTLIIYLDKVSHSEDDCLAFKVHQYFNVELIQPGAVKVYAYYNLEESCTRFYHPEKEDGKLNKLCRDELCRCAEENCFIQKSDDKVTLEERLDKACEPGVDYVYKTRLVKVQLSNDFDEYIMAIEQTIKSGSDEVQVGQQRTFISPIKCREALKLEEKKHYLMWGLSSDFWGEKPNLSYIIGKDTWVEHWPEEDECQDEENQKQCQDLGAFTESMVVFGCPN

Regarding “Ac-ICV(2-Igl)QDWGAHRCT-CONH2 [Ac-V4Igl/H9A]”, the Activity over compstatin in experiment [1] is recorded as 39 × more.
In experiment [2], “GICVWQDWGAHRCTN [G(−1)/V4W/H9A/N14, bacterially expressed compstatin analog]” registered an Activity over compstatin of 45 × more and a Relative activity of 45. Besides, in experiment [2] (Table 2, expressed peptides), the IC50 (usually the point on the concentration scale where inhibition reaches its midpoint) came out at 1200 nM.
In the case of `CC[C@H](C)[C@H](N)C(=O)N[C@H]1CSSC[C@@H](C(=O)N[C@H](C(N)=O)[C@@H](C)O)NC(=O)[C@H](CCCN=C(N)N)NC(=O)[C@H](Cc2cnc[nH]2)NC(=O)[C@H](Cc2cnc[nH]2)NC(=O)CNC(=O)[C@H](Cc2c[nH]c3ccccc23)NC(=O)[C@H](CC(=O)O)NC(=O)[C@H](CCC(N)=O)NC(=O)[C@H](C(C)C)NC(=O)[C@H](C(C)C)NC1=O` [Compstatin], the IC50 in experiment [3] is 12000 nM.
In the case of “GICVWQDWGAHRCTN [G(−1)/V4(5-OH-W)/W7(5-OH-W)/H9A/N14]”, in experiment [2] (Table 2, expressed peptides), the IC50 is 33000 nM. The molecule further came in with a Relative activity in experiment [2] of 1.6. Moreover, in experiment [2] (setting [5]), the “fold loss in activity / times less active compared to Ac-V4W/H9A” value stood at 27.5 fold.
Turning to `CC[C@H](C)[C@H](NC(C)=O)C(=O)N[C@H]1CSSC[C@@H](C(=O)N[C@H](C(N)=O)[C@@H](C)O)NC(=O)[C@H](CCCNC(=N)N)NC(=O)[C@H](Cc2c[nH]cn2)NC(=O)[C@H](C)NC(=O)CNC(=O)[C@H](Cc2c[nH]c3ccccc23)NC(=O)[C@H](CC(=O)O)NC(=O)[C@H](CCC(N)=O)NC(=O)[C@H](Cc2ccc3ccccc3c2)NC(=O)[C@H](C(C)C)NC1=O` [Ac-V4(2-Nal)/H9A], in experiment [4] (Table 6, ITC, 25° C.), the ΔG was -9.5 kcal/mol and the “−TΔS” value amounted to 4.8 kcal/mol. Further, in experiment [4] (Table 6, relative to Wild-type), the ΔΔG is -0.1 kcal/mol, the ΔΔH was 3.87 kcal/mol and the “−TΔΔS” value is -3.99 kcal/mol. Moreover, in experiment [2] (Table 5), half-maximal inhibition (IC50) required 545 nM. Also, in experiment [1], the Activity over compstatin was 99 × more.
For the molecule “Ac-V4(1-methyl-W)/H9A-K-PEG 5000: Ac-V4(1-methyl-W)/H9A with C-terminal lysine whose side chain is linked to PEG 5000 (ICVWQDWGAHRCTK; N-acetyl; 1-methyl-Trp at 4; C-terminal Lys-PEG5000)”, in experiment [2], the “complement inhibitory activity (in words)” value was “active in inhibiting complement activation” and the “amount of conjugate required to achieve the same inhibition as Ac-V4(1-methyl-W)/H9A” value is listed as “seven-fold more conjugate was required”.
Consider “Ac-ICV(2-Igl)QDWGAHRCT-COOH [Ac-V4Igl/H9A −OH]”, for which, in experiment [1], the Activity over compstatin is 37 × more.
Regarding “H-GICV(5f-l-W)QD(5f-l-W)GAHRCTN-COOH (H-GICV[Trp(5-F)]QD[Trp(5-F)]GAHRCTN-OH; disulfide 3-13 (inferred)) [G(−1)/V4(5fW)/W7(5fW)/H9A/N14, bacterially expressed compstatin analog]”, in experiment [2], the Activity over compstatin is 112 × more and the Relative activity came out at 112. Also, the IC50 in experiment [2] (Table 2, expressed peptides) was found to be 480 nM. The “fold higher activity than Ac-V4W/H9A” value in experiment [2] (setting [5]) turned out to be 2.5 fold.
For “Ac-ICV(1MeW)QDWGAHRCTRLIEDICLPRWGCLWEDD-NH2 [Albumin-binding peptide-compstatin]”, in experiment [2], the “complement inhibitory activity (in words)” value is reported as “active in inhibiting complement activation” and the “amount of conjugate required to achieve the same inhibition as Ac-V4(1-methyl-W)/H9A” value is given as “seven-fold more conjugate was required”.
On to Ac-ICVVQDWGHHRCT-CONH2 [Ac-compstatin], for which the Activity over compstatin in experiment [1] is listed as 3 × more.
As for “Ac-ICVYQDWGAHRCT-CONH2 (Ac-ICVYQDWGAHRCT-NH2; disulfide 2-12 (inferred)) [Ac-V4Y/H9A]”, the Activity over compstatin in experiment [1] is recorded as 19 × more.
In the case of “Ac-ICV(2-Nal)QDWGAHRCT-COOH [Ac V4(2-Nal)/H9A −OH]”, the Activity over compstatin in experiment [1] was 39 × more.
With “Ac-ICVDhtQDWGAHRCT-COOH [Ac-V4Dht/H9A −OH]”, the Activity over compstatin in experiment [1] is recorded as 5 × more.
As to “Ac-ICV(1-Nal)QDWGAHRCT-COOH [Ac V4(1-Nal)/H9A −OH]”, in experiment [1], the Activity over compstatin is recorded as 30 × more.
In experiment [2], “H-GICV(6f-l-W)QD(6f-l-W)GAHRCTN-COOH (H-GICV[Trp(6-F)]QD[Trp(6-F)]GAHRCTN-OH; disulfide 3-13 (inferred)) [G(−1)/V4(6fW)/W7(6fW)/H9A/N14, bacterially expressed compstatin analog]” came in with an Activity over compstatin of 126 × more and a Relative activity of 126. In experiment [2] (Table 2, expressed peptides), this molecule registered an IC50 of 430 nM. Moreover, the “fold higher activity than Ac-V4W/H9A” value in experiment [2] (setting [5]) stood at 2.8 fold.
For the molecule “Ac-ICV(Bpa)QDWGAHRCT-COOH [Ac-V4(Bpa)/H9A −OH]”, the Activity over compstatin in experiment [1] was 49 × more. Also, the “fold greater activity than compstatin” value in experiment [1] (analogs disclosed in WO2004/026328) is 49 fold.

The record behind these values is US9169307B2 (The Trustees of the University of Pennsylvania, priority 2005, dated 2015).
